{"source": "patent US9839632B2", "about": "“Methods and compositions using 4-amino-2-(2,6-dioxo-piperidine-3-yl)-isoindoline-1,3-dione for treatment and management of central nervous system cancers” (CELGENE CORPORATION, priority 2013, dated 2017)", "key": {"[1]": {"test_system": "U937 cells cocultured with Raji lymphoma cells", "test": "Polarization of U937 cocultured with Raji lymphoma cells with or without YTS NK cells", "type": "cell-based, human", "settings": "for M2 polarization of U937 cells (FXIIIA, pSTAT6): coculture with Raji lymphoma cells, without NK cells; for polarization status of U937 cells (iNOS, pSTAT1): triple culture with Raji lymphoma cells and YTS NK cells, 10 ug/ml 48 hours", "experimental": "(§1) Raji lymphoma cells (ATCC), U937 human monocyte cells (ATCC) and YTS NK cells (a gift from Dr. Pamela A. Becker) were cultured at 37° C. in a humidified incubator under 5% CO2 and 95% air in RPMI-1640 supplemented with 20% FCS and 1% penicillin-streptomycin, and 1% nonessential amino acids.\n(§2) OCI-LY10 lymphoma cells (a gift from Arthur L. Shaffer III) were cultured at 37° C. in a humidified incubator under 5% CO2 and 95% air in IMDM supplemented with 20% FCS and 1% penicillin-streptomycin. Co-culture of lymphoma cells and U937 monocytes: Raji and U937 monocytes were cultured at 37° C. in a humidified incubator under 5% CO2 and 95% air in RPMI-1640 supplemented with 20% FCS and 1% penicillin-streptomycin, and 1% nonessential amino acids. OCI-LY10 and U937 monocytes were cultured at 37° C. in a humidified incubator under 5% CO2 and 95% air in IMDM supplemented with 20% FCS and 1% penicillin-streptomycin. Triple culture of lymphoma cells, U937 monocytes and YTS cells: Raji, U937 and YTS cells were cultured at 37° C. in a humidified incubator under 5% CO2 and 95% air in RPMI-1640 supplemented with 20% FCS and 1% penicillin-streptomycin, and 1% nonessential amino acids. OCI-LY10, U937 and YTS were cultured at 37° C. in a humidified incubator under 5% CO2 and 95% air in IMDM supplemented with 20% FCS and 1% penicillin-streptomycin.\n(§3) Treatments: In experiments in which IL-4 was used to induce M2 polarization of macrophages, cells were treated with IL-4 (20 ng/ml) for 48 hours followed by treatment with 4-amino-2-(2,6-dioxo-piperidine-3-yl)-isoindoline-1,3-dione (10 ug/ml) or DMSO control for 48 hours. In triple cell culture experiments with lymphoma cells, macrophages, and NK cells, the treatment was with either DMSO or 4-amino-2-(2,6-dioxo-piperidine-3-yl)-isoindoline-1,3-dione (10 ug/ml) for 48 hours.\n(§4) Immunofluorescence for analysis of macrophage polarization in cell culture experiments: Live cells were fixed in 10% formalin for 30 minutes at room temperature followed by permeabilization with PBS-0.2% Triton X-100 for 2 min. After blocking with PBS-5% goat serum-0.02% Triton X-100 for 30 minutes at 37° C., the cells were incubated overnight at 4° C. with rat monoclonal F4/80 antibody (for primary microglia cells, 1:200 Abcam), rat monoclonal CD11b (for U937, 1:200 Biolegend), rabbit polyclonal Ym1 antibody (for primary microglia cells and primary peritoneal macrophages, 1:200, Stemcell Technologies, Vancouver, Canada), rabbit polyclonal FXIII A antibody (for U937, 1:200, Abcam), mouse monoclonal p-STAT1 antibody (1:200, Abcam), rabbit polyclonal p-STAT6 antibody (1:200, Abcam) or rabbit iNOS antibody (1:200, Calbiochem). […]"}, "[2]": {"test_system": "human monocyte U937 cells", "test": "Phagocytosis assay, human monocyte U937 cells", "type": "cell-based", "settings": "3 or 10 ug/ml, 48 hours, P<0.05 vs control", "experimental": "Phagocytosis assay: The impact of 4-amino-2-(2,6-dioxo-piperidine-3-yl)-isoindoline-1,3-dione on the phagocytic activity of macrophages was assessed in primary microglial cells and human monocyte cells (U937). The cells were cultured in complete medium for 4 days. They were then harvested and resuspended in Opti-MEM medium at 10^6 cells/ml and seeded in a 96 well plate at 100,000 viable cells/well. The experimental wells were treated with 4-amino-2-(2,6-dioxo-piperidine-3-yl)-isoindoline-1,3-dione 3 or 10 ug/ml. After 48 hours of treatment, the culture medium was quickly replaced with 100 ul of pHrodo BioParticles suspension (Life technologies and the cells were incubated in the suspension at 37° C. for 2-3 hours. Following incubation, the plates were scanned at 550 nm/600 nm (excitation/emission) using fluorescence plate reader. The fluorescence activity reflects the phagocytic activity of the macrophages. The impact of 4-amino-2-(2,6-dioxo-piperidine-3-yl)-isoindoline-1,3-dione treatment (% effect) was calculated as a fraction of the phagocytic activity in the positive control wells. Wan, C. P.; et al., J. Immunol. Methods, 1993, 162, pp. 1-7."}, "[3]": {"test_system": "primary murine peritoneal macrophages", "test": "Polarization of IL4-treated primary murine peritoneal macrophages (immunofluorescence)", "type": "cell-based", "settings": "IL-4 20 ng/ml 48 hours then 10 ug/ml 48 hours", "experimental": "as §3, §4"}, "human monocyte U937": {"test_system": "human monocyte U937", "test": "Polarization of IL4-treated human monocyte U937 (immunofluorescence)", "type": "cell-based", "settings": "U937, IL-4 20 ng/ml 48 hours then 10 ug/ml 48 hours", "experimental": "as §1, §3\nImmunofluorescence for analysis of macrophage polarization in cell culture experiments: Live cells were fixed in 10% formalin for 30 minutes at room temperature followed by permeabilization with PBS-0.2% Triton X-100 for 2 min. […]"}, "[4]": {"test_system": "U937 cells cocultured with OCI-LY10 lymphoma cells", "test": "Polarization of U937 cocultured with OCI-LY10 lymphoma cells with or without YTS NK cells", "type": "cell-based, human", "settings": "for M2 polarization of U937 cells (FXIIIA, pSTAT6): coculture with OCI-LY10 lymphoma cells, without NK cells; for polarization status of U937 cells (iNOS, pSTAT1): triple culture with OCI-LY10 lymphoma cells and YTS NK cells, 10 ug/ml 48 hours", "experimental": "as §1, §2, §3, §4"}, "[5]": {"settings": "listed as 4-amino-2-(2,6-dioxo-piperidine-3-yl)-isoindoline-1,3-dione"}}}
{"smiles": "Nc1cccc2c1C(=O)N(C1CCC(=O)NC1=O)C2=O", "note": "(centres unmarked) [Pomalidomide, 4-amino-2-(2,6-dioxo-piperidine-3-yl)-isoindoline-1,3-dione]", "values": [{"measurement": "M2 polarization of U937 cells (FXIIIA, pSTAT6)", "setting": "[1]", "result": "reversed"}, {"measurement": "M2 polarization of U937 cells (FXIIIA, pSTAT6)", "setting": "[1]; [5]", "result": "prevented the M2 polarization of macrophages but did not induce them into M1 polarization"}, {"measurement": "polarization status of U937 cells (iNOS, pSTAT1)", "setting": "[1]", "result": "from M2 to M1"}, {"measurement": "polarization status of U937 cells (iNOS, pSTAT1)", "setting": "[1]; [5]", "result": "became M1-polarized"}, {"measurement": "phagocytic activity", "setting": "[2]", "result": "significantly increased"}, {"measurement": "polarization status (FXIII A, pSTAT6 vs iNOS, pSTAT1 expression)", "setting": "[3]", "result": "from M2 to M1"}, {"measurement": "polarization status (FXIII A, pSTAT6 vs iNOS, pSTAT1 expression)", "setting": "human monocyte U937", "result": "from M2 to M1"}, {"measurement": "M2 polarization of U937 cells (FXIIIA, pSTAT6)", "setting": "[4]", "result": "reversed"}, {"measurement": "M2 polarization of U937 cells (FXIIIA, pSTAT6)", "setting": "[4]; [5]", "result": "prevented the M2 polarization of macrophages but did not induce them into M1 polarization"}, {"measurement": "polarization status of U937 cells (iNOS, pSTAT1)", "setting": "[4]", "result": "from M2 to M1"}, {"measurement": "polarization status of U937 cells (iNOS, pSTAT1)", "setting": "[4]; [5]", "result": "became M1-polarized"}]}
